This note sets out measurements from patent publication US20250144056A1, “ANTIMICROBIAL HOST DEFENSE PEPTIDE-INDUCING COMPOSITIONS AND METHODS OF PRODUCTION AND USE THEREOF” (Board of Regents for the Oklahoma Agricultural and …, priority 2022, published 2025).

For one assay, the system named is AvBD9 gene promoter. Description: HTC/AvBD9-luc luciferase reporter assay. The class given is cell-based, chicken. As for the experimental part:
Culture and stimulation of a stable HTC/AvBD9-luc luciferase reporter cell line. A stable HTC/AvBD9-luc cell line was generated by cloning a 2.0-Kb AvBD9 gene promoter fragment into a lentiviral luciferase reporter vector, pGreenFire1-mCMV-Puro (System Biosciences, Palo Alto, CA) and then transfected into HTC cells as previously described (22). The stable cell line was maintained in RPMI 1640 containing 10% heat-inactivated FBS, 100 U/ml penicillin, 100 μg/mL streptomycin, and 0.5 μg/mL puromycin and subcultured every 3-4 days. To measure transcriptional activation of the AvBD9 gene promoter in response to different epigenetic compounds, cells were seeded at 4×10^4 cells/well in white 96-well tissue culture plates and stimulated in duplicate with different compounds individually or in combination for 24 h. An equal amount of a solvent was applied as a negative control. Luciferase activity was measured using STEADY-GLO® Luciferase Assay System (Promega, Madison, WI) on an L-Max II luminescence microplate reader (Molecular Devices, Sunnyvale, CA). Cell viabilities were assessed by adding alamarBlue Reagent (ThermoFisher, Waltham, MA) to cell culture 4 h before luciferase assay. Relative luciferase activity was determined for each well after normalization to the cell viability as previously described (22).
In general terms: A reporter such as luciferase makes a cellular process visible.

In assay [1] the test system is AvBD4. Description: RT-qPCR of AvBD4 in HTC cells. The class given is cell-based, chicken. Particulars: 2 mM butyrate and at least one concentration of BIX01294, 24 h (FIG. 5). Here is the method:
(§1) Culture and stimulation of macrophages. Two different chicken macrophage cell lines, HTC (24) and HD11 (25), were kindly provided by Dr. Narayan C. Rath and Dr. Hyun Lillehoj of USDA-ARS and maintained in RPMI 1640 containing 10% heat-inactivated FBS, 100 U/ml penicillin, and 100 μg/ml streptomycin and subcultured every 3-4 days. After overnight seeding at 1.5×10^6 cells/well in 6-well cell culture plates, cells were treated with different concentrations of each compound for 24 h or with the indicated concentration of each compound for various lengths of time for dose-response and time-course experiments, respectively. […]
(§2) Total RNA extraction and gene expression analysis. […] Gene expression was performed using reverse transcription-quantitative PCR (RT-qPCR) as previously described (27-29). […] The cDNA was then diluted 10-fold with RNase-free water prior to real-time PCR using QuantiTect SYBR® Green PCR Kit (Qiagen, Valencia, CA) in 10-μl reactions using primers specific for HDP, barrier function, and inflammatory cytokine genes as described (27, 29, 30). […] The fold changes in gene expression in the cells treated with individual compounds or in combinations were calculated relative to the cells treated with an equal volume of RPMI 1640 or DMSO using the ΔΔCt method (31).
(In general: Quantitative PCR measures a nucleic acid by following its amplification.)

A further assay concerns AvBD8. Description: RT-qPCR of AvBD8 in HTC cells. The class given is cell-based, chicken. The following applies: 2 mM butyrate and at least one concentration of BIX01294, 24 h (FIG. 5). As for the experimental part: as §1, §2
For assay [2], the system named is AvBD10. Description: RT-qPCR of AvBD10 in HTC cells. The class given is cell-based, chicken. The following applies: 2 mM butyrate and at least one concentration of BIX01294, 24 h (FIG. 5). As for the experimental part: as §1, §2
For a further assay, the system named is AvBD1. Description: RT-qPCR of AvBD1 in HD11 macrophages. The class given is cell-based, chicken. The following applies: HD11 cells, 5 μM compound with 2 mM butyrate, 24 h (FIG. 6, Panel B). Here is the method: as §1, §2
For assay [3], the system named is AvBD4. Description: RT-qPCR of AvBD4 in HD11 macrophages. The class given is cell-based, chicken. Particulars: HD11 cells, 5 μM compound with 2 mM butyrate, 24 h (FIG. 6, Panel C). Here is the method: as §1, §2
Assay [4] has as its system AvBD10. Description: RT-qPCR of AvBD10 in HD11 macrophages. The class given is cell-based, chicken. Particulars: HD11 cells, 5 μM compound with 2 mM butyrate, 24 h (FIG. 6, Panel D). Here is the method:
as §1, §2

Another assay relates to AvBD9. Description: RT-qPCR of AvBD9 in peripheral blood mononuclear cells (PBMCs). The class given is cell-based. The following applies: chicken PBMCs, 24 h (FIG. 6, Panel F). Here is the method: Isolation, culture, and stimulation of chicken peripheral blood mononuclear cells (PBMCs). Chicken PBMCs were isolated from EDTA-anticoagulated venous blood collected from 2- to 4-week-old broiler chickens through gradient centrifugation using Histopaque 1077 (Millipore Sigma) as previously described (22, 26). PBMCs were seeded at 3×10^7 cells/well in 6-well cell culture plates and stimulated with different concentrations of an HMTi or DNMTi with or without 1 mM butyrate for 24 h, followed by RNA isolation and HDP gene expression analysis as described below.
Total RNA extraction and gene expression analysis. Total RNA was extracted using RNAzol (Molecular Biology Research Center, Cincinnati, OH) according to the manufacturer's protocol. Gene expression was performed using reverse transcription-quantitative PCR (RT-qPCR) as previously described (27-29). […] The cDNA was then diluted 10-fold with RNase-free water prior to real-time PCR using QuantiTect SYBR® Green PCR Kit (Qiagen, Valencia, CA) in 10-μl reactions using primers specific for HDP, barrier function, and inflammatory cytokine genes as described (27, 29, 30). […] The fold changes in gene expression in the cells treated with individual compounds or in combinations were calculated relative to the cells treated with an equal volume of RPMI 1640 or DMSO using the ΔΔCt method (31).

In another assay the test system is CLDN1. Description: RT-qPCR of CLDN1 (claudin 1) in HTC cells. The class given is cell-based, chicken. As for the experimental part:
(§3) Culture and stimulation of macrophages. Two different chicken macrophage cell lines, HTC (24) and HD11 (25), were kindly provided by Dr. Narayan C. Rath and Dr. Hyun Lillehoj of USDA-ARS and maintained in RPMI 1640 containing 10% heat-inactivated FBS, 100 U/ml penicillin, and 100 μg/ml streptomycin and subcultured every 3-4 days. After overnight seeding at 1.5×10^6 cells/well in 6-well cell culture plates, cells were treated with different concentrations of each compound for 24 h or with the indicated concentration of each compound for various lengths of time for dose-response and time-course experiments, respectively. To study the synergy between HMTi/DNMTi and HDACi, different concentrations of an HMTi or DNMTi were added to the cells in the presence or absence of an HDACi for 24 h, followed by RNA isolation and HDP gene expression analysis as described below. HTC cells were also stimulated with butyrate, BIX01294, or their combination for 24 h, followed by 3-h stimulation with 10 ng/ml LPS and subsequent expression analysis.
(§4) Total RNA extraction and gene expression analysis. Total RNA was extracted using RNAzol (Molecular Biology Research Center, Cincinnati, OH) according to the manufacturer's protocol. Gene expression was performed using reverse transcription-quantitative PCR (RT-qPCR) as previously described (27-29). Reverse transcription was performed with 300 ng of total RNA and Maxima® First Strand cDNA Synthesis Kit (ThermoFisher Scientific, Pittsburgh, PA). The cDNA was then diluted 10-fold with RNase-free water prior to real-time PCR using QuantiTect SYBR® Green PCR Kit (Qiagen, Valencia, CA) in 10-μl reactions using primers specific for HDP, barrier function, and inflammatory cytokine genes as described (27, 29, 30). PCR was run in CFX Connect Real-Time PCR System (Bio-Rad, Hercules, CA) using the following program: 95° C. for 10 min, followed by 40 cycles of 94° C. for 15 sec, 55° C. for 20 sec, and 72° C. for 30 sec. The specificity of PCR reactions was confirmed by the melting curve analysis. The glyceraldehyde-3-phosphate dehydrogenase (GAPDH) gene was used as the reference for data normalization. The fold changes in gene expression in the cells treated with individual compounds or in combinations were calculated relative to the cells treated with an equal volume of RPMI 1640 or DMSO using the ΔΔCt method (31).

The next assay concerns IL-1β. Description: RT-qPCR of IL-1β in HTC cells with or without LPS. The class given is cell-based, chicken. As for the experimental part: as §3, §4
The next assay deals with IL-8. Description: RT-qPCR of IL-8 in HTC cells with or without LPS. The class given is cell-based, chicken. Here is the method:
as §3, §4

For the compound `COc1cc2nc(N3CCCN(C)CC3)nc(NC3CCN(Cc4ccccc4)CC3)c2cc1OC` [BIX01294], in the assay with AvBD9 gene promoter (compound alone, different concentrations, 24 h (FIG. 2, Panel A)), the “activation of the AvBD9 gene promoter (relative luciferase activity)” value is on record as “concentration-dependent activation”. Besides, the “synergy in luciferase activity with butyrate” value in the assay on AvBD9 gene promoter (different concentrations in combination with 2 mM butyrate, 24 h (FIG. 3)) was “marked dose-dependent increase in the synergy”. Further, the “AvBD4 induction, combination with butyrate” value in the assay with AvBD4 [1] is “greater than 100 fold”; in the assay on AvBD4 [3], “synergistically induced, albeit at lower magnitudes”. Further, the “AvBD8 induction, combination with butyrate” value in the assay with AvBD8 is recorded as “greater than 100 fold”. The “AvBD10 induction, combination with butyrate” value with AvBD10 [2] is on record as “greater than 100 fold”; with AvBD10 [4], “synergistically induced, albeit at lower magnitudes”. Also, the “AvBD1 induction, combination with butyrate” value in the assay with AvBD1 is on record as “synergistically induced, albeit at lower magnitudes”. The AvBD9 induction entry in the assay on AvBD9 (BIX01294 alone) was “induced AvBD9 in a dose-dependent manner”. For the same compound, in the assay with AvBD9 (BIX01294 with 1 mM butyrate), the “synergy in AvBD9 induction with butyrate” value is on record as “obvious synergy”. Also, the “CLDN1 synergy with butyrate after subsequent LPS treatment” value with CLDN1 (5 μM BIX01294 + 2 mM butyrate 24 h, then 10 ng/ml LPS 3 h (FIG. 8, Panel A)) was “further enhanced”. In the assay with CLDN1 (5 μM BIX01294 + 2 mM butyrate, 24 h (FIG. 8, Panel A)), the “synergy in CLDN1 expression with butyrate” value is recorded as “marked synergy”. Moreover, the “activity in increasing CLDN1 expression” value with CLDN1 (5 μM BIX01294 alone, 24 h (FIG. 8, Panel A)) is “minimum activity”. For the same compound, the “effect on LPS-induced IL-1B expression, combination with butyrate” value with IL-1β (5 μM BIX01294 + 2 mM butyrate 24 h, then 10 ng/ml LPS 3 h (FIG. 8, Panel D)) was “significant reduction”. In addition, the “IL-1β synthesis, combination with butyrate” value in the assay with IL-1β (5 μM BIX01294 + 2 mM butyrate, without LPS (FIG. 8, Panel D)) is on record as “tended to have a synergistic effect”. Besides, in the assay with IL-1β (compound alone 24 h, then 10 ng/ml LPS 3 h (FIG. 8, Panel D)), the “effect on LPS-induced IL-1β expression” value was “opposite effect”. In addition, the “activity in inducing gene expression of IL-1β” value in the assay on IL-1β (compound alone (2 mM butyrate or 5 μM BIX01294), without LPS (FIG. 8, Panel D)) is recorded as “no or weak activity”. Further, in the assay with IL-8 (5 μM BIX01294 + 2 mM butyrate 24 h, then 10 ng/ml LPS 3 h (FIG. 8, Panel E)), the “LPS-induced IL-8 expression level, combination with butyrate” value is listed as “remained elevated”. For the same compound, the “IL-8 synthesis, combination with butyrate” value with IL-8 (5 μM BIX01294 + 2 mM butyrate, without LPS (FIG. 8, Panel E)) is given as “tended to have a synergistic effect”. Moreover, the “effect on LPS-induced IL-8 expression” value with IL-8 (compound alone 24 h, then 10 ng/ml LPS 3 h (FIG. 8, Panel E)) is given as “potentiated”. The “activity in inducing gene expression of IL-8” value in the assay on IL-8 (compound alone (2 mM butyrate or 5 μM BIX01294), without LPS (FIG. 8, Panel E)) is “no or weak activity”.
